Reference: patent US20250145665A1, “MACROCYCLIC PEPTIDES USEFUL AS MODULATORS OF TNF ALPHA” (Bristol-Myers Squibb Company, priority 2023, published 2025)
Where two headings read alike, the source gives them in different places. Starred links: 1 amine or outer side, 2 acyl side, 3 side chain; linkers in the order of their positions; H or OH if unused. Positions of bridges follow the written chain, without caps; N, C: chain ends. Non-standard residues stand in square brackets, D forms with d. Residues, ends and D or L forms follow the SMILES beside them. ξ: configuration not given here. *: point of attachment. X38 = O=C(O)C1CCC(C(=O)Nc2ccc(-c3ccc(C[C@H](N[*:1])C(=O)[*:2])cc3)cc2)CC1; X79 = O=C(O)C1CCCC(C(=O)Nc2ccc(-c3ccc(C[C@H](N[*:1])C(=O)[*:2])cc3)cc2)C1; X40 = O=C(O)C1CCCCC1C(=O)Nc1ccc(-c2ccc(C[C@H](N[*:1])C(=O)[*:2])cc2)cc1; Bip(4'-NHBz) = N[C@@H](Cc1ccc(-c2ccc(NC(=O)c3ccccc3)cc2)cc1)C(=O)O; Bip(4'-NH) = O=C([C@H](Cc1ccc(-c2ccc(N[*:3])cc2)cc1)N[*:1])[*:2]; Bip(4'-COOH) = N[C@@H](Cc1ccc(-c2ccc(C(=O)O)cc2)cc1)C(=O)O; Bip(4'-NHAc) = CC(=O)Nc1ccc(-c2ccc(C[C@H](N)C(=O)O)cc2)cc1; Ala(morpholin-4-yl) = N[C@@H](CN1CCOCC1)C(=O)O; Phe(3-CONH2) = NC(=O)c1cccc(C[C@H](N)C(=O)O)c1; Bip = N[C@@H](Cc1ccc(-c2ccccc2)cc1)C(=O)O; X57 = Cn1c(C(=O)*)cc2c(Cl)cccc21; 2Thi = N[C@@H](Cc1cccs1)C(=O)O; Cha = N[C@@H](CC1CCCCC1)C(=O)O; Chg = N[C@H](C(=O)O)C1CCCCC1; ξE = NC(CCC(=O)O)C(=O)O; Sar = CNCC(=O)O

Molecular target: TNFα (Homo sapiens, UniProt P01375)
Experiment: TNF-Induced HEK-Blue Assay
Assay type: cell-based
[1] = HEK-Blue-CD40L cells, NF-kB-driven secreted alkaline phosphatase reporter, TNFα 0.5 ng/ml, 18 h, read-out: TNF induced HEK-Blue assay IC50 value

TNFα, sequence (P01375 77-233 limits assumed): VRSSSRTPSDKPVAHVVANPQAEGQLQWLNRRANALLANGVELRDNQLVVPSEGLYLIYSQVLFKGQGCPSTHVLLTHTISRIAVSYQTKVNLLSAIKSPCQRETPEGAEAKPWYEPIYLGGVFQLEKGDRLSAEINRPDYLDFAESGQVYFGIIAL

## CC(=O)Nc1ccc(-c2ccc(C[C@@H]3NC(=O)[C@H](Cc4ccc(-c5ccccc5)cc4)NC(=O)[C@H](CN4CCOCC4)NC(=O)CSC[C@@H](C(=O)NCC(N)=O)NC(=O)[C@H](CC(C)C)NC(=O)[C@H](Cc4cccc(C(N)=O)c4)NC(=O)[C@H](C(C)C)NC(=O)[C@@H]4CCCN4C(=O)[C@H](C(C)C)NC(=O)[C@@H](CCCNC(=N)N)NC(=O)[C@H](CC(=O)O)NC(=O)[C@@H]4CCCN4C(=O)CN(C)C3=O)cc2)cc1 [Example 311] ({CH2CO}-[Ala(morpholin-4-yl)][Bip][Bip(4'-NHAc)][Sar]PD[dR]VPV[Phe(3-CONH2)]LCG-NH2; thioether N-13)
[1]
  IC50: 50 to 200 nM

## CC(=O)Nc1ccc(-c2ccc(C[C@@H]3NC(=O)[C@H](Cc4ccc(-c5ccccc5)cc4)NC(=O)[C@H](CN4CCOCC4)NC(=O)CSC[C@@H](C(=O)NCC(N)=O)NC(=O)[C@H](CC(C)C)NC(=O)[C@H](Cc4cccc(C(N)=O)c4)NC(=O)[C@H](C4CCCCC4)NC(=O)[C@@H]4CCCN4C(=O)[C@H](C(C)C)NC(=O)[C@@H](CCCNC(=N)N)NC(=O)[C@H](CC(=O)O)NC(=O)[C@@H]4CCCN4C(=O)CN(C)C3=O)cc2)cc1 [Example 312] ({CH2CO}-[Ala(morpholin-4-yl)][Bip][Bip(4'-NHAc)][Sar]PD[dR]VP[Chg][Phe(3-CONH2)]LCG-NH2; thioether N-13)
[1]
  IC50: 200 to 2000 nM

## CC(=O)Nc1ccc(-c2ccc(C[C@@H]3NC(=O)[C@H](Cc4ccc(-c5ccc(C(=O)O)cc5)cc4)NC(=O)[C@H](CN4CCOCC4)NC(=O)CSC[C@@H](C(=O)NCC(N)=O)NC(=O)[C@H](CC(C)C)NC(=O)[C@H](Cc4cccc(C(N)=O)c4)NC(=O)[C@H](C(C)C)NC(=O)[C@@H]4CCCN4C(=O)[C@H](C(C)C)NC(=O)[C@@H](CCCNC(=N)N)NC(=O)[C@H](CC(=O)O)NC(=O)[C@@H]4CCCN4C(=O)CN(C)C3=O)cc2)cc1 [Example 313] ({CH2CO}-[Ala(morpholin-4-yl)][Bip(4'-COOH)][Bip(4'-NHAc)][Sar]PD[dR]VPV[Phe(3-CONH2)]LCG-NH2; thioether N-13)
[1]
  IC50: 200 to 2000 nM

## CC(=O)Nc1ccc(-c2ccc(C[C@@H]3NC(=O)[C@H](Cc4ccc(-c5ccc(C(=O)O)cc5)cc4)NC(=O)[C@H](CN4CCOCC4)NC(=O)CSC[C@@H](C(=O)NCC(N)=O)NC(=O)[C@H](CC(C)C)NC(=O)[C@H](Cc4cccs4)NC(=O)[C@H](C4CCCCC4)NC(=O)[C@@H]4CCCN4C(=O)[C@H](C(C)C)NC(=O)[C@@H](CCCNC(=N)N)NC(=O)[C@H](CC(=O)O)NC(=O)[C@@H]4CCCN4C(=O)CN(C)C3=O)cc2)cc1 [Example 314] ({CH2CO}-[Ala(morpholin-4-yl)][Bip(4'-COOH)][Bip(4'-NHAc)][Sar]PD[dR]VP[Chg][2Thi]LCG-NH2; thioether N-13)
[1]
  IC50: 200 to 2000 nM

## CC[C@H](C)[C@@H]1NC(=O)[C@@H](CCCNC(=N)N)NC(=O)[C@H](CC(=O)O)NC(=O)[C@H](Cc2cnc[nH]2)NC(=O)CN(C)C(=O)[C@H](Cc2ccc(-c3ccc(NC(=O)c4ccccc4)cc3)cc2)NC(=O)[C@H](Cc2ccc(-c3ccccc3)cc2)NC(=O)[C@H](CC2CCCCC2)NC(=O)CSC[C@@H](C(=O)NCC(N)=O)NC(=O)[C@H](CC(C)C)NC(=O)[C@H](Cc2cnc[nH]2)NC(=O)[C@H](C(C)C)NC(=O)[C@@H]2CCCN2C1=O [Example 315] ({CH2CO}-[Cha][Bip][Bip(4'-NHBz)][Sar]HD[dR]IPVHLCG-NH2; thioether N-13)
  IC50: < 50 nM

## CC[C@H](C)[C@@H]1NC(=O)[C@@H](CCCNC(=N)N)NC(=O)[C@H](CC(=O)O)NC(=O)[C@H](Cc2cnc[nH]2)NC(=O)CN(C)C(=O)[C@H](Cc2ccc(-c3ccc(NC(=O)C4CCC(C(=O)O)CC4)cc3)cc2)NC(=O)[C@H](Cc2ccc(-c3ccccc3)cc2)NC(=O)[C@H](CC2CCCCC2)NC(=O)CSC[C@@H](C(=O)NCC(N)=O)NC(=O)[C@H](CC(C)C)NC(=O)[C@H](Cc2cnc[nH]2)NC(=O)[C@H](C(C)C)NC(=O)[C@@H]2CCCN2C1=O (some centres unmarked) [Example 316] ({CH2CO}-[Cha][Bip][X38][Sar]HD[dR]IPVHLCG-NH2; thioether N-13)
[1]
  IC50: 50 to 200 nM

## CC[C@H](C)[C@@H]1NC(=O)[C@@H](CCCNC(=N)N)NC(=O)[C@H](CC(=O)O)NC(=O)[C@H](Cc2cnc[nH]2)NC(=O)CN(C)C(=O)[C@H](Cc2ccc(-c3ccc(NC(=O)C4CCCC(C(=O)O)C4)cc3)cc2)NC(=O)[C@H](Cc2ccc(-c3ccccc3)cc2)NC(=O)[C@H](CC2CCCCC2)NC(=O)CSC[C@@H](C(=O)NCC(N)=O)NC(=O)[C@H](CC(C)C)NC(=O)[C@H](Cc2cnc[nH]2)NC(=O)[C@H](C(C)C)NC(=O)[C@@H]2CCCN2C1=O (some centres unmarked) [Example 317] ({CH2CO}-[Cha][Bip][X79][Sar]HD[dR]IPVHLCG-NH2; thioether N-13)
[1]
  IC50: 50 to 200 nM

## CC[C@H](C)[C@@H]1NC(=O)[C@@H](CCCNC(=N)N)NC(=O)[C@H](CC(=O)O)NC(=O)[C@H](Cc2cnc[nH]2)NC(=O)CN(C)C(=O)[C@H](Cc2ccc(-c3ccc(NC(=O)C4CCCCC4C(=O)O)cc3)cc2)NC(=O)[C@H](Cc2ccc(-c3ccccc3)cc2)NC(=O)[C@H](CC2CCCCC2)NC(=O)CSC[C@@H](C(=O)NCC(N)=O)NC(=O)[C@H](CC(C)C)NC(=O)[C@H](Cc2cnc[nH]2)NC(=O)[C@H](C(C)C)NC(=O)[C@@H]2CCCN2C1=O (some centres unmarked) [Example 318] ({CH2CO}-[Cha][Bip][X40][Sar]HD[dR]IPVHLCG-NH2; thioether N-13)
[1]
  IC50: 50 to 200 nM

## CC[C@H](C)[C@@H]1NC(=O)[C@@H](CCCNC(=N)N)NC(=O)[C@H](CC(=O)O)NC(=O)[C@H](Cc2cnc[nH]2)NC(=O)CN(C)C(=O)[C@H](Cc2ccc(-c3ccc(NC(=O)c4cc5c(Cl)cccc5n4C)cc3)cc2)NC(=O)[C@H](Cc2ccc(-c3ccccc3)cc2)NC(=O)[C@H](CC2CCCCC2)NC(=O)CSC[C@@H](C(=O)NCC(N)=O)NC(=O)[C@H](CC(C)C)NC(=O)[C@H](Cc2cnc[nH]2)NC(=O)[C@H](C(C)C)NC(=O)[C@@H]2CCCN2C1=O [Example 319] ({CH2CO}-[Cha][Bip][Bip(4'-NH)](X57)[Sar]HD[dR]IPVHLCG-NH2; thioether N-13)
[1]
  IC50: 50 to 200 nM

## CC(=O)Nc1ccc(-c2ccc(C[C@@H]3NC(=O)[C@H](Cc4ccc(-c5ccc(C(=O)O)cc5)cc4)NC(=O)[C@H](CN4CCOCC4)NC(=O)CSC[C@@H](C(=O)NCC(N)=O)NC(=O)[C@H](CC(C)C)NC(=O)[C@H](Cc4cccc(C(N)=O)c4)NC(=O)[C@H](C4CCCCC4)NC(=O)[C@@H]4CCCN4C(=O)[C@H](C(C)C)NC(=O)[C@@H](CCCNC(=N)N)NC(=O)[C@H](CC(=O)O)NC(=O)[C@@H]4CCCN4C(=O)CN(C)C3=O)cc2)cc1 [Example 320] ({CH2CO}-[Ala(morpholin-4-yl)][Bip(4'-COOH)][Bip(4'-NHAc)][Sar]PD[dR]VP[Chg][Phe(3-CONH2)]LCG-NH2; thioether N-13)
[1]
  IC50: 200 to 2000 nM

## CC(=O)Nc1ccc(-c2ccc(C[C@@H]3NC(=O)[C@H](Cc4ccc(-c5ccccc5)cc4)NC(=O)[C@H](CC4CCCCC4)NC(=O)CSC[C@@H](C(=O)NC(CCC(=O)O)C(N)=O)NC(=O)[C@H](CC(C)C)NC(=O)[C@H](Cc4ccc(O)cc4)NC(=O)[C@H](C(C)C)NC(=O)[C@@H]4CCCN4C(=O)[C@H](C(C)C)NC(=O)[C@@H](CCCNC(=N)N)NC(=O)[C@H](CC(=O)O)NC(=O)[C@@H]4CCCN4C(=O)CN(C)C3=O)cc2)cc1 (some centres unmarked) [Example 321] ({CH2CO}-[Cha][Bip][Bip(4'-NHAc)][Sar]PD[dR]VPVYLC[ξE]-NH2; thioether N-13)
[1]
  IC50: 50 to 200 nM
